From patent US8686016B2, “Schweinfurthins and uses thereof” (The United States of America, as represented by the …, priority 2009, dated 2014)

Assays:
MPNST K14553 cells = experiment: XTT cell proliferation assay, K14553; format: cell-based, mouse
Procedure: (§1) Establishment of NPcis MPNST cell lines: Mice were euthanized by CO2 asphyxiation and tumors were dissected. The tumor volume was measured. The tumor was then cut in half, and ½ fixed in 4% PFA. The other half was rinsed, then cut into 24 pieces of approximately equal size. Each piece was diced with a razor blade and placed in 1 well of a 24 well plate, along with 625 μL of Triple Express (Gibco, Grand Island, N.Y., USA) and 5 μL of recombinant DNAse (Roche, Indianapolis, Ind., USA). Tumors were triturated, then incubated at 37° C. in a 5% CO2 incubator for 2-5 hours, with an additional trituration halfway through incubation time. At the end of the incubation, tumor pieces were triturated again, and suspended cells were transferred to 1.5 mL eppendorf tubes. […] Both plates were monitored for cell growth, grown up to 10 cm plates, and frozen down in 10% DMSO. […]
(§2) XTT Cell Proliferation Assay: Cells were seeded into 96-well plates at a density of 2,000 cells/well and allowed to reattach overnight. Cells were treated with SA, synthetic analogs, camptothecin (NCI Chemotherapeutics Repository, Md., USA), or DMSO control at the indicated concentrations continuously for 48 hours followed by assay in the 96-well plate for relative viable cell number using the dye […] (XTT) and a Wallac-Victor 2 plate reader (Perkin-Elmer, Waltham, Mass., USA). […]

Chemical stability = format: physicochemical; details: compared with the free resorcinols
MPNST T265 cells = experiment: XTT cell proliferation assay, T265; format: cell-based, human
Procedure: (§3) XTT Cell Proliferation Assay: Cells were seeded into 96-well plates at a density of 2,000 cells/well and allowed to reattach overnight. Cells were treated with SA, synthetic analogs, camptothecin (NCI Chemotherapeutics Repository, Md., USA), or DMSO control at the indicated concentrations continuously for 48 hours followed by assay in the 96-well plate for relative viable cell number using the dye […] (XTT) and a Wallac-Victor 2 plate reader (Perkin-Elmer, Waltham, Mass., USA). Absorbance was determined at 450 nm with 650 nm as a reference reading. Primary astrocytes were additionally assayed at a 96 hour time point.
Cell lines and culture: Human MPNST cell lines (STS26T and T265) were obtained from the Pediatric Oncology Branch, NCI (Bethesda, Md., USA).

NCI 60-cell line panel = experiment: NCI 60 cell line assay; format: cell-based, human
MPNST K16561 cells = experiment: XTT cell proliferation assay, K16561; format: cell-based, mouse
Procedure: as §1, §2

[1] = test system: KR158 cells stably transfected with GFP-actin; experiment: Cell morphology / actin confocal microscopy, KR158 GFP-actin; format: cell-based, mouse; details: 16-18 hrs treatment
Procedure: Doxorubicin studies: KR158 stably transfected with GFP-actin were treated with 25 and 50 μM doxorubicin for 18 hrs continuously.
Cell Morphology Assays and Confocal Microscopy: To assay cytoskeleton morphology, KR158 cells, mouse primary astrocytes, KR158 clones expressing the NF1-GRD constructs, K14553 cells, and A549 were seeded to cover slips and allowed to reattach overnight. Cells were treated for 18 hours with either the indicated concentrations of SA, or the vehicle control DMSO. The cover slips were fixed in 3.7% paraformaldehyde, permeablized in 0.1% Triton-X100, and stained with Alexa Fluor 488-phalloidin (Invitrogen, Carlsbad, Calif., USA) to detect actin and cells were mounted in Prolong Antifade containing DAPI (Invitrogen) to stain nuclei. The cells were imaged on a LSM510 confocal microscope (Carl Zeiss Inc., Jena, Germany). […] KR158 GFP-actin transfected cells were seeded to 8-well chamber slides, allowed to reattach, and then treated with indicated concentrations of SA. Actin structures were monitored continuously over a 16 hr period using confocal microscopy equipped with a growth chamber (37° C., humidified atmosphere and 5% CO2). To compare SA to Rho/Rock inhibitors, KR158 GFP-actin cells were treated with SA or with the Rho pathway inhibitors Rock inhibitor Y-27632 (Sigma, St. Louis, Mo., USA), and the Rho inhibitor C3 transferase (Cytoskeleton, Inc., Denver, Colo., USA, cat# CT04) for 16 hrs, and then examined by confocal microscopy.

A549 cells = experiment: XTT cell proliferation assay, A549; format: cell-based, human; details: 48 hours
Procedure: as §3

CC(C)=CCC/C(C)=C/Cc1c(O)cc(/C=C/c2cc(O)c3c(c2)C[C@@H]2C(C)(C)[C@H](O)CC[C@@]2(C)O3)cc1O [3dSB, 3-Deoxyschweinfurthin B]
inhibition of proliferation (percent viability versus control) (MPNST K14553 cells): sensitive

COc1cc(/C=C/c2cc3c(c(OC)c2)O[C@]2(C)C[C@@H](O)[C@@H](O)C(C)(C)[C@H]2C3)cc(O)c1CC=C(C)C [5′MeSE, 5′-Methylschweinfurthin E]
chemical stability (Chemical stability): more stable chemically than the free resorcinols
inhibition of proliferation (percent viability versus control) (MPNST T265 cells): sensitive
GI50 (NCI 60-cell line panel): low nM range

COc1cc(/C=C/c2cc(O)c3c(c2)C[C@@H]2C(C)(C)[C@H](O)CC[C@@]2(C)O3)cc(O)c1CC=C(C)C [5′MeSG, 5′-Methylschweinfurthin G]
chemical stability (Chemical stability): more stable chemically than the free resorcinols
inhibition of proliferation (percent viability versus control) (MPNST T265 cells): sensitive
GI50 (NCI 60-cell line panel): low nM range
inhibition of proliferation (percent viability versus control) (MPNST K16561 cells): sensitive

COc1cc(/C=C/c2cc(O)c(C/C=C(\C)CCC=C(C)C)c(O)c2)cc2c1O[C@]1(C)C[C@@H](O)[C@@H](O)C(C)(C)[C@H]1C2 [SB, Schweinfurthin B]
inhibition of proliferation (percent viability versus control) (MPNST T265 cells): sensitive
differential cytotoxicity (NCI 60-cell line panel; NCI 60-cell line panel): significant differential cytotoxicity

C[C@@H](N)[C@H]1CC[C@H](C(=O)Nc2ccncc2)CC1 [Y-27632, reference compound]
F-actin staining / stress fibers [1]: dramatic loss of F-actin staining

CC[C@@]1(O)C(=O)OCc2c1cc1n(c2=O)Cc2cc3ccccc3nc2-1 [camptothecin, reference compound]
inhibition of proliferation (percent viability versus control) (A549 cells): sensitive

COc1cccc2c1C(=O)c1c(O)c3c(c(O)c1C2=O)C[C@@](O)(C(=O)CO)C[C@@H]3O[C@H]1C[C@H](N)[C@H](O)[C@H](C)O1 [doxorubicin, reference compound]
F-actin staining / stress fibers [1]: retained stress fibers

C3 transferase
F-actin staining / stress fibers [1]: dramatic loss of F-actin staining
